Test results from patent US9840493B2, “Modified amino acids comprising tetrazine functional groups, methods of preparation, and methods of their use” (SUTRO BIOPHARMA, INC., priority 2013, dated 2017).
≈ marks a conversion by molar mass, not a printed value. Like-named read-outs stand apart in the source and are kept apart here. Values belong to the compound of their own block, whether it stands above or below them.

What was measured:
[1] = Solubility in phosphate buffered saline pH 7.4 at room temperature; assay type: physicochemical; details: PBS pH 7.4, room temperature; for solubility: phosphate buffered saline, aqueous buffer, thermodynamic from solid
Protocol: This example describes the solubility of three non-natural amino acids comprising tetrazine functional groups in phosphate buffered saline solution, with a pH of 7.4 (PBS). The example also illustrates and discusses the useful increased solubility of the pyridyl tetrazine amino acids provided herein when compared to a phenyl tetrazine-comprising non-natural amino acid of the art.
A suspension of AB 4091 was formed by adding 1.8 mg of AB 4091 to 5 mL of PBS. The suspension was vortexed for five minutes and sonicated for two minutes. Suspended particles remained. Additional PBS was added to the suspension in small portions, with vortexing, to reach a total volume of 25 mL of PBS. This mixture remained cloudy after shaking overnight at room temperature and turned clear following the addition of 2 mL of PBS with vortexing. Clarity of the solution was determined by visual inspection.
(§1) A solution of compound (9) was formed by adding 8.3 mg of compound (9) to 200 μL of PBS to form a homogeneous solution. An additional 11.5 mg of compound (9) was added to this solution, in small portions, over a period of 20 minutes, with vortexing. The solution remained clear after vortexing, with no particulates or cloudiness observed. The maximum solubility of compound (9) was not reached, due to its high solubility and the limited amount of the compound available.
as §1, with “compound (6)” for “compound (9)”, “adding 8.7” for “adding 8.3”, “a homogenous” for “a homogeneous”, “additional 26.9” for “additional 11.5”, “of 25” for “of 20”

tRNA synthetase 2A9 = target: T1, tRNA synthetase 2A9 (Methanocaldococcus jannaschii, UniProt Q57834, D158G/H70A/L162S/L65V/Q109S/Y32G); assay: Cell-free GFP (K49TAG) expression assay: incorporation of non-natural amino acid by tRNA synthetase 2A9; assay type: biochemical, Methanococcus jannaschii; details: 2-4 μM 2A9, compound of formula 6 at 1 mM, 30° C., 12 h, ex 476 nm / em 510 nm
T1 construct: made in house
Protocol: (§2) This example provides two novel tRNA synthetases useful with tetrazine-containing amino acids described herein. These two synthetases, designated “2A2” (SEQ ID NO: 4) and “2A9” (SEQ ID NO: 5) were produced by mutagenesis of wild-type tyrosyl-tRNA synthetase (TyrRS) from Methanococcus jannaschii (SEQ ID NO:3). Mutagenesis was performed by assembling overlapping oligonucleotides encoding the mutations by polymerase chain reaction (PCR). Mutants were screened utilizing the green fluorescent protein expression assay described below.
(§3) The ability of the novel tRNA synthetases to incorporate modified amino acids into a polypeptide was evaluated in cell-free protein synthesis reactions comprising DNA encoding SUPERFOLDER green fluorescent protein (GFP). The codon encoding position 49 of the GFP polypeptide, which normally encodes a lysine residue, was substituted with an amber stop codon (TAG). Full-length GFP is expressed only if the novel tRNA synthetases incorporate s modified amino acid into the polypeptide chain. The level of expression of full-length GFP can be evaluated by measuring fluorescence.
(§4) The GFP DNA containing the TAG stop codon was expressed in cell-free protein synthesis reactions as described in Zawada et al., 2011, Biotechnol. Bioeng. […]

tRNA synthetase 2A2 = target: T2, tRNA synthetase 2A2 (Methanocaldococcus jannaschii, UniProt Q57834, D158V/F108W/H70A/I159A/L162V/L65V/Q109S/Y32L); assay: Cell-free GFP (K49TAG) expression assay: incorporation of non-natural amino acid by tRNA synthetase 2A2; assay type: biochemical, Methanococcus jannaschii; details: 4 μM 2A2, compound of formula 9 at 4 mM, 30° C., 12 h, ex 476 nm / em 510 nm
T2 construct: made in house
Protocol: as §2, §3, §4

[2] = solution remained clear, read-out: final concentration achieved (maximum solubility not reached)

T2 sequence (Q57834 whole entry Y32L/L65V/H70A/F108W/Q109S/D158V/I159A/L162V): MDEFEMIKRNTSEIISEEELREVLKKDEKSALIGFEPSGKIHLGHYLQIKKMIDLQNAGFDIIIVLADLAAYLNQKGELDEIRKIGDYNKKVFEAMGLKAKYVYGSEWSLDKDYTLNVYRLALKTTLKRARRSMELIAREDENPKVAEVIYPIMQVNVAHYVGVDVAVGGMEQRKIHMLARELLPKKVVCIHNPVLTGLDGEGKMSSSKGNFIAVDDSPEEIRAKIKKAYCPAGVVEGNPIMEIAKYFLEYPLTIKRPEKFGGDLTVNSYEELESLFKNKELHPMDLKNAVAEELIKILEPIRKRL
T1 sequence (Q57834 whole entry Y32G/L65V/H70A/Q109S/D158G/L162S): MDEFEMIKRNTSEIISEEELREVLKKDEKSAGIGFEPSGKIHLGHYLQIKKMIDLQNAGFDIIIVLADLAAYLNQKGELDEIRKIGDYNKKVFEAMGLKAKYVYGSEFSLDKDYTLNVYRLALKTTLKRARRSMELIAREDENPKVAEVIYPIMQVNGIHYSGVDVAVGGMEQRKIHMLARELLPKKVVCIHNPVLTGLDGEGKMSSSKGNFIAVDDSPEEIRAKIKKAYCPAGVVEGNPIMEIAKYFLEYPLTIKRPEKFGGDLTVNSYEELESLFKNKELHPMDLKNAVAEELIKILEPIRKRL

solubility ([1]; clarity by visual inspection, read-out: solubility): ~0.215 mM (≈ 0.059 mg/mL)
SMILES: Cc1nnc(Nc2ccc(CC(N)C(=O)O)cc2)nn1 (stereo not shown) [AB 4091, reference compound]

SMILES: Cc1nnc(Nc2ccc(C[C@H](N)C(=O)O)cn2)nn1 [compound (6)]
solubility relative to the solubility of AB 4091 [1]: over 3000 fold | solubility [1, 2]: ≥ 647 mM | GFP fluorescence compared with native GFP positive control (tRNA synthetase 2A9): approaches that of native GFP

SMILES: Cc1nnc(NCc2ccc(C[C@H](N)C(=O)O)nc2)nn1 [compound (9)]
solubility relative to the solubility of AB 4091 [1]: over 1600 fold | solubility [1, 2]: ≥ 342 mM | GFP fluorescence compared with native GFP positive control (tRNA synthetase 2A2): approximately equivalent to that of native GFP
